How the values were obtained:
Experiment in all cases: combination Emax (second highest fraction inhibited in the dose matrix, 72 h); higher = more inhibition; extreme values may be limits of the assay
[1] = tested on: LU-65 (Non-Small Cell Lung Carcinoma)
In short: (§1)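 Bliss excess equals the observed combination effect minus the expected value EA + EB − EA·EB, where EA and EB are the effects of each agent alone. Combination Emax is the second-highest inhibition within the matrix. Inhibition was scaled from CellTiter-Glo 2.0 luminescence, with 0 set by vehicle wells and 1 by blank wells, after 72 hours of two-drug dosing of cells plated in 1536-well plates.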

[2] = tested on: OE19 (Esophageal Adenocarcinoma)
In short: as §1

[3] = tested on: OSC-20 (Oral Cavity Carcinoma)
In short: as §1

[4] = tested on: NUGC-3 (Gastric Carcinoma)
In short: as §1

[5] = tested on: ACHN (Kidney Carcinoma)
In short: as §1

[6] = tested on: HSC-4 (Oral Cavity Carcinoma)
In short: as §1

[7] = tested on: TK10 (Kidney Carcinoma)
In short: as §1

[8] = tested on: NCI-H727 (Other Solid Carcinomas)
In short: as §1

[9] = tested on: Hs-766T (Pancreatic Carcinoma)
In short: as §1

[10] = tested on: NCI-H1915 (Non-Small Cell Lung Carcinoma)
In short: as §1

[11] = tested on: KYSE-450 (Esophageal Squamous Cell Carcinoma)
In short: as §1

[12] = tested on: HGC-27 (Gastric Carcinoma)
In short: as §1

[13] = tested on: TE-1 (Esophageal Squamous Cell Carcinoma)
In short: as §1

[14] = tested on: AMO-1 (Plasma Cell Myeloma)
In short: as §1

[15] = tested on: MLMA (Other Blood Carcinomas)
In short: as §1

[16] = tested on: Caov-4 (Ovarian Carcinoma)
In short: as §1

[17] = tested on: TGW (Neuroblastoma)
In short: as §1

[18] = tested on: SU8686 (Pancreatic Carcinoma)
In short: as §1

[19] = tested on: OVCAR-4 (Ovarian Carcinoma)
In short: as §1

[20] = tested on: NCI-H358 (Lung Adenocarcinoma)
In short: as §1

Row | Structure (SMILES) | combination Emax [1] | combination Emax [2] | combination Emax [3] | combination Emax [4] | combination Emax [5] | combination Emax [6] | combination Emax [7] | combination Emax [8] | combination Emax [9] | combination Emax [10] | combination Emax [11] | combination Emax [12] | combination Emax [13] | combination Emax [14] | combination Emax [15] | combination Emax [16] | combination Emax [17] | combination Emax [18] | combination Emax [19] | combination Emax [20]
1 | CN(C)CCCOc1ccc(-c2ccc3ncc4c(c3c2)n(C2CCOCC2)c(=O)n4C)cn1 [AZD0156] + O=C(c1cc(Cc2n[nH]c(=O)c3ccccc23)ccc1F)N1CCN(C(=O)C2CC2)CC1 [Olaparib] (first compound max 3 µM, partner max 3 µM) | 0.268 | 0.512 | 0.245 | 0.346 | 0.338 | 0.234 | 0.197 | 0.286 | 0.207 | 0.231 | 0.159 | 0.478 | 0.0888 | 0.481 | 0.363 | 0.154 | 0.413 | 0.146 | 0.149 | 0.247
2 | CN(C)CCCOc1ccc(-c2ccc3ncc4c(c3c2)n(C2CCOCC2)c(=O)n4C)cn1 [AZD0156] + CCN(CCO)CCCOc1ccc2c(Nc3cc(CC(=O)Nc4cccc(F)c4)[nH]n3)ncnc2c1 [AZD2811] (first compound max 1 µM, 7x7, partner max 1 µM) | 0.281 | 0.722 | 0.353 | 0.322 | 0.135 | 0.0498 | 0.166 | 0.155 | 0.0844 | 0.299 | 0.193 | 0.866 | 0.254 | 0.312 | 0.239 | 0.19 | 0.356 | 0.0439 | 0.148 | 0.157
3 | Cn1cnc2c(F)c(Nc3ccc(Br)cc3Cl)c(C(=O)NOCCO)cc21 [Selumetinib] + C[C@@H]1COCCN1C2=NC(=NC(=C2)C3(CC3)[S@](=N)(=O)C)C4=C5C=CNC5=NC=C4 [AZD6738] (first compound max 10 µM, 7x7, partner max 10 µM) | 0.808 | 0.606 | 0.295 | 0.666 | 0.804 | 0.595 | 0.573 | 0.652 | 0.567 | 0.701 | 0.356 | 0.734 | 0.585 | 0.885 | 0.596 | 0.76 | 0.577 | 0.113 | 0.532 | 0.586
4 | C=CCn1c(=O)c2cnc(Nc3ccc(N4CCN(C)CC4)cc3)nc2n1-c1cccc(C(C)(C)O)n1 [AZD1775] + C1CN(CCC1(C(=O)N[C@@H](CCO)C2=CC=C(C=C2)Cl)N)C3=NC=NC4=C3C=CN4 [Capivasertib] (first compound max 3 µM, partner max 3 µM) | 0.815 | 0.717 | 0.619 | 0.715 | 0.825 | 0.629 | 0.503 | 0.667 | 0.325 | 0.657 | 0.843 | 0.886 | 0.732 | 0.945 | 0.894 | 0.754 | 0.889 | 0.202 | 0.672 | 0.663
5 | CCc1c2c(nc3ccc(O)cc13)-c1cc3c(c(=O)n1C2)COC(=O)[C@]3(O)CC [SN-38] + CN(C)CCCOc1ccc(-c2ccc3ncc4c(c3c2)n(C2CCOCC2)c(=O)n4C)cn1 [AZD0156] (first compound max 0.3 µM, 7x7, partner max 1 µM) | 0.836 | 0.618 | 0.716 | 0.984 | 0.951 | 0.804 | 0.409 | 0.297 | 0.39 | 0.609 | 0.767 | 0.885 | 0.522 | 0.9 | 0.877 | 0.954 | 0.62 | 0.497 | 0.187 | 0.722
6 | CCN(CCO)CCCOc1ccc2c(Nc3cc(CC(=O)Nc4cccc(F)c4)[nH]n3)ncnc2c1 [AZD2811] + C=CCn1c(=O)c2cnc(Nc3ccc(N4CCN(C)CC4)cc3)nc2n1-c1cccc(C(C)(C)O)n1 [AZD1775] (first compound max 1 µM, partner max 1 µM) | 0.56 | 0.651 | 0.369 | 0.539 | 0.999 | 0.367 | 0.33 | 0.311 | 0.346 | 0.522 | 0.61 | 0.896 | 0.601 | 0.718 | 0.981 | 0.821 | 0.761 | 0.177 | 0.472 | 0.416
7 | COc1nnc2ccc(N3CCC(c4ccc(OCCN5CCN(C)C(=O)[C@H]5C)cc4)CC3)nn12 [AZD5153] + Cn1cnc2c(F)c(Nc3ccc(Br)cc3Cl)c(C(=O)NOCCO)cc21 [Selumetinib] (first compound max 1 µM, 7x7, partner max 10 µM) | 0.789 | 0.631 | 0.23 | 0.649 | 0.634 | 0.423 | 0.604 | 0.678 | 0.589 | 0.732 | 0.429 | 0.796 | 0.601 | 0.928 | 0.906 | 0.706 | 0.602 | 0.241 | 0.492 | 0.589
8 | CC(=O)c1c(C)c2cnc(Nc3ccc(N4CCNCC4)cn3)nc2n(C2CCCC2)c1=O [Palbociclib] + Cn1cnc2c(F)c(Nc3ccc(Br)cc3Cl)c(C(=O)NOCCO)cc21 [Selumetinib] (first compound max 10 µM, 7x7, partner max 10 µM) | 0.491 | 0.332 | 0.182 | 0.533 | 0.606 | 0.261 | 0.427 | 0.636 | 0.465 | 0.782 | 0.403 | 0.617 | 0.383 | 0.557 | 0.769 | 0.585 | 0.342 | 0.173 | 0.286 | 0.524
9 | CN(C)CCCOc1ccc(-c2ccc3ncc4c(c3c2)n(C2CCOCC2)c(=O)n4C)cn1 [AZD0156] + C=CCn1c(=O)c2cnc(Nc3ccc(N4CCN(C)CC4)cc3)nc2n1-c1cccc(C(C)(C)O)n1 [AZD1775] (first compound max 1 µM, partner max 1 µM) | 0.639 | 0.427 | 0.233 | 0.552 | 0.933 | 0.389 | 0.353 | 0.333 | 0.43 | 0.563 | 0.583 | 0.499 | 0.627 | 0.827 | 0.908 | 0.753 | 0.769 | 0.208 | 0.55 | 0.472
10 | CCc1c2c(nc3ccc(O)cc13)-c1cc3c(c(=O)n1C2)COC(=O)[C@]3(O)CC [SN-38] + O=C(c1cc(Cc2n[nH]c(=O)c3ccccc23)ccc1F)N1CCN(C(=O)C2CC2)CC1 [Olaparib] (first compound max 0.3 µM, 7x7, partner max 10 µM) | 0.87 | 0.309 | 0.746 | – | 0.912 | – | 0.373 | 0.256 | 0.415 | – | 0.671 | 0.852 | – | 0.952 | 0.858 | 0.937 | 0.668 | – | 0.24 | 0.693
11 | Cc1c2c(nn1C)CSCc1cc(n(C)n1)CSc1cc(c3ccccc3c1)OCCCc1c(C(=O)O)n(C)c3c-2c(Cl)ccc13 [AZD5991] + C1CN(CCC1(C(=O)N[C@@H](CCO)C2=CC=C(C=C2)Cl)N)C3=NC=NC4=C3C=CN4 [Capivasertib] (first compound max 1 µM, 7x7, partner max 3 µM) | 0.543 | 0.442 | 0.199 | 0.171 | – | 0.42 | 0.257 | 0.374 | 0.23 | 0.18 | 0.376 | 0.861 | 0.553 | 1 | 0.407 | 0.493 | 0.326 | 0.129 | 0.18 | 0.243
12 | CS(=O)(=O)CCNCc1ccc(-c2ccc3ncnc(Nc4ccc(OCc5cccc(F)c5)c(Cl)c4)c3c2)o1 [Lapatinib] + NC1(c2ccc(-c3nc4ccn5c(=O)[nH]nc5c4cc3-c3ccccc3)cc2)CCC1 [MK-2206] (first compound max 10 µM, 7x7, partner max 10 µM) | 0.649 | – | – | 0.91 | 0.676 | 0.42 | 0.698 | 0.88 | 0.303 | – | 0.602 | 0.988 | – | 0.963 | 0.945 | 0.878 | 0.422 | – | – | 0.631
13 | O=C(c1cc(Cc2n[nH]c(=O)c3ccccc23)ccc1F)N1CCN(C(=O)C2CC2)CC1 [Olaparib] + Cc1c2c(nn1C)CSCc1cc(n(C)n1)CSc1cc(c3ccccc3c1)OCCCc1c(C(=O)O)n(C)c3c-2c(Cl)ccc13 [AZD5991] (first compound max 10 µM, 7x7, partner max 1 µM) | 0.2 | – | – | – | 0.177 | – | 0.0994 | 0.106 | 0.0824 | – | 0.0895 | – | – | 1 | 0.384 | 0.482 | 0.192 | – | – | 0.197

Source: the supplement of paper PMC11061612
